Each structure is given as a SMILES string.

The text below walks through data of patent publication US10905704B2, “Agents and methods using thereof for the prevention and treatment of stem cell muscle disorders” (ECOLE POLYTECHNIQUE FEDERALE DE LAUSANNE (EPFL), priority 2015, dated 2021).

The test system of test [1] is MuSCs. In words: MuSC autofluorescence (405/450) as measure of relative NAD(P)H, cellular redox ratio. The class given is cell-based. The settings on record: MuSCs isolated from NR-treated Mdx mice, FIG. 6G-I. As to the method: Determining cellular redox ratio. NAD+ and NADH quantification and ratio were measured using a kit from Biovision (Milpitas, Calif.), following providers' instructions. With continuous muscle regeneration, MuSCs in Mdx mice are abnormally active at a young age, leading to MuSC depletion and dysfunction later in life. […] Thus the self-renewal capacity of Mdx mouse MuSCs was tested. The cellular redox ratio decreases as MuSCs differentiate (Fulco et al., 2003, Molecular Cell, 12: 51), which can be detected by the increase in 405/450 autofluorescence (Quinn et al., 2013, Scientific Reports, 3: 3432). […] We then performed β-galactosidase staining on primary MuSCs isolated from Mdx mice, with or without NR treatment, and cultured these cells with NR or vehicle in vitro. […] The prevention of MuSCs senescence in NR-treated Mdx mice was confirmed by the attenuation of γH2AX and cleaved caspase-3 immunostaining (FIG. 6K). To evaluate MuSC function, CTX-induced muscle regeneration was examined in NR-treated mice.

Test [2] has as its system MuSCs. In words: Senescence marker staining of MuSCs from Mdx mice (β-galactosidase, γH2AX, cleaved caspase-3). To be noted: for senescence by β-galactosidase staining: FIG. 6J. The class given is cell-based. The method, then:
β-galactosidase assay. MuSCs were sorted directly and cultured primary MuSCs were grown on 8 chamber slides (Thermo Scientific). Senescence-associated β-galactosidase activity was detected using the senescence β-galactosidase staining kit (Cell signaling), according to manufacturer's instructions. Cardiotoxin-induced muscle damage and Histology as described in Example 2. The following antibodies were used: anti-eMHC (Developmental Studies Hybridoma Bank, DSHB, University of Iowa), anti-Pax7 (DSHB, University of Iowa), anti-γH2AX […] (Millipore) and anti-activated-caspase3 (Cell signaling).

In test [3] the test system is C2C12 myoblasts. Briefly: Western blot of UPRmt markers, prohibitins and cell cycle proteins in NR-treated C2C12 myoblasts. The class given is cell-based, mouse. As to the method:
Western blotting performed as described in Example 3. The following primary antibodies were used: anti-HSP60 (Enzo Life Science); anti-β-actin (Sigma); anti-PHB (Biolegend); anti-PHB2 (Santa Cruz); anti-CKD4 (Novus biologicals); anti-CCND1 (Santa Cruz); anti-CCND3 (Santa Cruz); anti-HSP90 (BD Biosciences); HSP70 (Abcam); and anti-CLPP (Sigma). Cell culture and treatments were prepared according to description of Example 3. C2C12 mouse myoblasts were grown in DMEM (4.5 g/1 glucose, Gibco) supplemented with 10% FBS and penicillin/streptomycin (1×, Gibco). Cell transformation with Phb (Santa Cruz) and Phb2 shRNA (Santa Cruz) were performed using jetPEI DNA transfection kit (Polyplus), according to manufacturer's instructions. Cells were treated with 1 mM NR or PBS for 6 hours before cell harvesting or fixation. Respirometry on C2C12 myoblasts. Basal and uncoupled oxygen consumption rates (OCRs) and the extracellular acidification rate (ECAR) was measured using the Seahorse extracellular flux bioanalyzer (XF96, Seahorse Bioscience Inc.). To uncouple mitochondria, 5 uM of FCCP was injected after a basal respiration measurement. All measurements were performed in triplicates and results were normalized to total protein amount (C2C12 cells), assessed using a Bradford kit (Bio-Rad).

In test [4] the test system is primary MuSCs. Briefly: Respirometry on MuSCs. The settings on record: primary MuSCs isolated from NR-treated aged mice. The class given is cell-based, C57BL/6J mice. As to the method:
Respirometry on MuSCs. Basal and uncoupled oxygen consumption rates (OCRs) were measured using the Seahorse extracellular flux bioanalyzer (XF96, Seahorse Bioscience Inc.). To uncouple mitochondria, 5 uM of FCCP was injected after a basal respiration measurement. All measurements were performed in triplicates and results were normalized to total cell number seeded (primary MuSCs) assessed using a Bradford kit (Bio-Rad).

Test [5] concerns MuSCs. In words: Gene expression analyses (qPCR) in freshly isolated MuSCs of NR-treated mice. The class given is cell-based, C57BL/6J mice. The method, then: Gene expression analyses. Total RNA was extracted from MuSCs by sorting cells directly into TriPure RNA isolation reagent (Roche) or from cultured C2C12 myoblasts using TriPure reagent according to the product manual. Total RNA was transcribed to cDNA using QuantiTect Reverse Transcription Kit (Qiagen). Expression of selected genes was analyzed using the LightCycler480 system (Roche) and LightCycler® 480 SYBR Green I Master reagent (Roche). The acidic ribosomal protein 36b4 gene (ribosomal protein, large, P0, Rp1p0) was used as housekeeping reference. FACS based muscle stem cell isolation. Gastrocnemius, soleus, quadriceps, and tibialis anterior muscles from both limbs were excised and transferred into PBS on ice. All muscles were trimmed, minced and digested with 0.1 mg/ml of type II collagenase (Sigma) in PBS for 15 min at 37° C. Samples were then centrifuged at 750 g for 5 min and further digested in 1 mg/ml of collagenase/dispase (Roche) for 30 mins at 37° C. Muscle slurries were sequentially filtered through 100, 70 and 40 μm cell strainers. The isolated cells were then washed in washing buffer (PBS+2.5% FBS) then resuspended in 200 μl of washing buffer and immediately stained with antibodies, including the MuSC markers CD31 (1:800, eBioscience, eFluor450 conjugated); CD34 (1:200, eBioscience, eFluor660 conjugated); CD45 (1:200, eBioscience, eFluor450 conjugated); CD11b (1:400, eBioscience, eFluor450 conjugated); Sca-1 (1:1000, eBioscience, PE-Cy7 conjugated); and α7 integrin (1:300, MBL) for 30 min at 4° C. Secondary staining was performed with a mixture of goat anti-mouse antibody (1:800, Life technologies, Alexa Fluor 488 conjugated) and propidium Iodide (PI, Sigma) for 15 min at 4° C. in the dark. Stained cells were analysed and sorted using the FACSAria II instrument (BD Biosciences). Debris and dead cells were excluded by forward scatter, side scatter and PI gating. Cells were sorted either directly on slides for immunostaining and into TriPure (Roche) reagent for RNA extraction.
For orientation: Quantitative PCR measures a nucleic acid by following its amplification.

The nature of test [6]: Endurance running test. The class given is in vivo, C57BL/6J mice. The settings on record: aged mice, NR diet. As to the method: Endurance running test. Mice were fasted 2 hours before running on a treadmill. The exercise regimen commenced at a speed of 9 cm/s with an inclination of 5 degrees. […] Mice were considered to be exhausted, and removed from the treadmill, following the accumulation of 5 or more shocks (0.1 mA) per minute for two consecutive minutes. The distance traveled and time before exhaustion is registered as maximal running distance and period.

Where [7] appears, read: MuSCs of NR-treated Mdx mice, cultured three generations, FIG. 6K.
The mark [8] stands for this setting: freshly isolated aged MuSCs, NR diet, FIG. 4H.

Turning to `NC(=O)c1ccc[n+]([C@@H]2O[C@H](CO)[C@@H](O)[C@H]2O)c1` [NR, nicotinamide riboside], the “405/450 autofluorescence of MuSCs” value in test [1] was “significant reduction in autofluorescence”. Besides, the “senescence by β-galactosidase staining” value in test [2] (MuSCs from Mdx mice additionally treated with NR in vitro (6 hours)) is listed as “further reduction in senescence”. Also, the “senescence by β-galactosidase staining” value in test [2] (MuSCs isolated from NR-treated Mdx mice) is listed as “less prone to senescence”. In addition, in test [2] (setting [7]), the “cleaved caspase-3 immunostaining” value is given as “attenuation” and the γH2AX immunostaining result was “attenuation”. Also, the “dependence of NR effects on cell senescence on prohibitins” value in test [3] (C2C12, Phb1 and Phb2 shRNA knockdown with 6-hour NR treatment, overexpression, FIG. 5C,D) is “PHB-dependent”. In addition, the “Phb1 and Phb2 expression” value in test [3] (C2C12 myoblasts, NR treatment, FIG. 5A) is “induced Phb1 and Phb2 expression”. The “UPRmt markers (HSP60, CLPP)” value in test [3] (NR-treated C2C12 mouse myoblasts, FIG. 5A) is given as “similarly induced”. In test [4], the oxidative respiration entry was “trend in oxidative respiration was replicated”. In addition, the “mitochondrial TCA and OXPHOS gene expression” value in test [5] (aged MuSCs, NR diet, FIG. 4I) is listed as “largely rescued”. Further, in test [5] (setting [8]), the “expression of cell cycle related genes” value was “increasing the expression of cell cycle related genes”; the “mRNA levels of CDKN1A and related senescence indicators” value is given as “significantly reduced”. Besides, in test [5] (young and aged MuSCs, NR 400 mg/kg/day 6 weeks, FIG. 5B), the “Phb1 and Phb2 expression” value is “induced Phb1 and Phb2 expression”. Besides, in test [6] (FIG. 3E), the maximal running distances result is given as “improvements”. In test [6] (FIG. 3F), the maximal running times result is given as “improvements”.
